Several values for one entry are separate records, joined by “and”; a condition that tells them apart may be missing. Equal entries are not always repeated.
Columns and labels:
[1] = test system: carbonic anhydrase II (CA); test: Intact protein MS photoaffinity labeling screen, carbonic anhydrase; assay type: binding; settings: intact protein MS after 10 min irradiation
Summary of the method: (§1)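 Fragments are tested singly per well. Protein and fragment incubate 15 min for non-covalent association, then the plate goes directly to intact protein mass spectrometry, where mass shifts matching fragment addition give the labeling %.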

BRD4-BD1 = test system: T1, BRD4-BD1; test: Intact MS photoaffinity labeling screen, BRD4-BD1 (302 nm, LCMS-TOF); assay type: binding; settings: for MS labeling percentage, BRD4: BRD4-BD1, 302 nm 10 min
T1 construct: screened the PhP library against the first bromodomain of BRD4 (BRD4-BD1); purchased GSK/GenScript
Summary of the method: (§2)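 Labeling detected as mass additions in deconvoluted intact-protein LCMS-TOF spectra. Protein at 1 μM in PBS was first mixed with one fragment per well on ice for 15 min, followed by 10 min UV exposure at 302 nm.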

KRas^G12D = test system: T2, KRas^G12D; test: Intact MS photoaffinity labeling screen, KRas G12D (302 nm, LCMS-TOF); assay type: binding; settings: for MS labeling percentage, KRas: KRas G12D, 302 nm 10 min
T2 construct: purchased GSK/GenScript
Summary of the method: as §2

lysozyme (Lyo) = test: Intact protein MS photoaffinity labeling screen, lysozyme; assay type: binding; settings: intact protein MS after 10 min irradiation
Summary of the method: as §1

myoglobin (Myo) = test: Intact protein MS photoaffinity labeling screen, myoglobin; assay type: binding; settings: intact protein MS after 10 min irradiation
Summary of the method: as §1

STAT5B-NTD [2] = test system: T3, STAT5B-NTD; test: Intact MS photoaffinity labeling screen, STAT5B-NTD (365 nm, UHPLC-MS); assay type: binding; settings: for MS labeling percentage, STAT5B: STAT5B-NTD, 365 nm 10 min, no photocatalyst;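 for MS labeling percentage, STAT5B: 0.17 µL of 100 mM DMSO fragment stock added to the protein sample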
T3 construct: His-SUMO (N, cleaved yes); made in house; host or cells: E. coli BL21 RILP
Summary of the method: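 Intact-protein labeling detected by UHPLC-MS in positive ion mode over m/z 100–2000. Samples were first photo-crosslinked at 365 nm for 10 min at 4 °C. Before irradiation, 7 µM STAT5B in PBS pH 7.4 was pre-incubated with probe for 1 h in the dark at room temperature.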

STAT5B-NTD [3] = test system: T3, STAT5B-NTD; test: Intact MS labeling screen, STAT5B-NTD conjugated with photocatalyst Ir-G2-PEG3-COOH (450 nm); assay type: binding; settings: 450 nm 10 min;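 note: 0.14 µL of 100 mM DMSO fragment stock added to the conjugate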
Summary of the method: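 Ir-G2-PEG3-COOH photocatalyst (10 eq) activated 30 min with EDC/NHS/BOP, then conjugated to STAT5B-NTD (7 µM) overnight at RT or 1 h at 37 °C in dark. PhP added, 1 h dark, then 450 nm irradiation 10 min at 4 °C; labeling read by intact LC-MS, positive ion mode, m/z 100–2000.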

[4] = test system: T4, Kras G12D protein / SOS1 exchange domain; test: Kras-SOS exchange assay (MANT-GDP); assay type: biochemical
T4 construct: Cytoskeleton, Inc. (SOS1 exchange domain only) GE02
Description: MANT-GDP loading assay: Kras^G12D protein was first buffer exchanged into low magnesium buffer (20 mM HEPES-NaOH (pH 7.5), 50 mM NaCl, 0.5 mM MgCl2) using a NAP5 column (catalog no.: 17-0583-1, Cytiva). The proteins were then incubated with 20-fold molar excess of N-methylanthraniloyl (MANT)-GDP (catalog no.: 69244, Sigma-Aldrich) in loading buffer (50 mM NaCl, 20 mM HEPES-NaOH [pH 7.5], 0.5 mM MgCl2, 10 mM EDTA, and 1 mM Dithiothreitol (DTT)) in a total volume of 200 μL at 20 °C for 90 min. The reaction was stopped by adding MgCl2 to a final concentration of 10 mM, then incubated at 20 °C for 30 min. The unbound MANT-GDP was removed using the NAP-5 column equilibrated with nucleotide exchange buffer (40 mM HEPES-NaOH (pH 7.5), 50 mM NaCl, 10 mM MgCl2, 2 mM DTT).
MANT-GDP exchange assay: First the MANT-GDP bound Kras G12D protein (in a final 1 μM molar concentration) was preincubated with the inhibitor molecules for 60 min. After the preincubation the samples were exposed to UV light for 10 min with a wavelength of 366 nm. The UV-treated MANT-GDP Kras-inhibitor mix was loaded into a black 384 well microplate. The nucleotide exchange reaction was initiated by adding 100 fold molar excess of GppNHp (catalog no.: G0635, Sigma-Aldrich), a non-hydrolyzable GTP analog and the SOS1 exchange domain (catalog no.: GE02, Cytoskeleton, Inc.) protein in 0.5 μM final concentration. The change in fluorescence intensity was measured every 30 s in room temperature for 60 min on an EnSpire plate reader (PerkinElmer, Inc.). The measured fluorescence values were fitted to a single exponential function by using GraphPad Prism 8 software.

[5] = test system: CA, Lyo, Myo, BRD4-BD1, KRas G12D, STAT5B-NTD; test: Intact MS labeling compared over all protein targets; assay type: binding; settings: for Labeling of the other protein targets (vs. preferred target): each of the other targets
Description: Using a plate-based format with one fragment per well, each fragment was incubated with the target proteins for 15 min to allow for the formation of non-covalent interactions. The plate was then irradiated at 302 or 365 nm for 10 min to enable the bound fragments to crosslink to the protein[26]. Finally, the results were directly analyzed from the plate using intact protein mass spectrometry by observing the mass additions that correspond to successful labeling (Fig. 2c, for labeling % values see Supplementary data). The library was first characterized against three benchmark proteins like carbonic anhydrase (CA), lysozyme (Lyo), and myoglobin (Myo).
The PhP library was screened against BRD4-BD1 and KRas^G12D as follows. Using a Labcyte Echo® 555 Liquid Handler, 150 nL of fragment solution (20 mM) was transferred into a Greiner 384 low-volume plate (white) to prepare the probe plate. The probe plate was placed on ice. 15 μL of protein stock solution (1 μM BRD4-BD1 (GSK/GenScript) or KRas^G12D (GSK/GenScript) in PBS buffer) was dispensed into wells containing fragments. The plate was left on ice for 15 min for incubation, then irradiated at 302 nm for 10 min, and centrifuged (1000 rpm, 1 min) to remove any bubbles. The plate was then analyzed by LCMS-TOF mass spectrometry (Agilent 1200 series liquid chromatography with Agilent Bio-HPLC PLRP-S (1000 Å, 5 µm × 50 mm × 1.0 mm, PL1312-1502) reverse phase HPLC column at 70 °C equipped with an Agilent G6224 time-of-flight (ToF), see Supplementary Note 2 for the full protocols). The deconvoluted spectra were analyzed using R Studio software.
During the analysis, the column temperature was maintained at a constant 60 °C, and a sample volume of 3 µL was injected for each analysis. Data acquisition was conducted in positive ion mode within the m/z 100–2000 (mass-to-charge ratio) range. For the full protocol and spectra of the hits, see Supplementary Note 2.

[6] = sheet PhP, experimental hit status flag given as 0 or 1
[7] = PhP library sheet "PhP", binary flag printed as 0 or 1, key not given
[8] = hit status flag, 1 = hit, 0 = no hit

SMILES | MS labeling percentage, CA [1] [%] | MS labeling percentage, KRas (KRas^G12D) [%] | MS labeling percentage, Lyo (lysozyme (Lyo)) [%] | MS labeling percentage, Myo (myoglobin (Myo)) [%] | MS labeling percentage, STAT5B (STAT5B-NTD [2]) [%] | MS labeling percentage, STAT5B+photocat (STAT5B-NTD [3]) [%] | MS labeling percentage, BRD4 (BRD4-BD1) [%] | BRD4-BD1 (experimental hit status) (BRD4-BD1; [7]) | KRAS-G12D (experimental hit status) (KRas^G12D; [7]) | STAT5B-NTD (experimental hit status) (STAT5B-NTD [2]; [7]) | Labeling of the other protein targets (vs. preferred target) [5] | BRD4-BD1 (experimental hit status) (BRD4-BD1; [8]) | KRAS-G12D (experimental hit status) (KRas^G12D; [8]) | STAT5B-NTD (experimental hit status) (STAT5B-NTD [2]; [8]) | Labeling efficiency over all protein targets (mean ± spread) [5] [%] | also measured
CC1(CCC(=O)Nc2ccc(-c3ncccc3O)cc2)N=N1 [PhP060, N1=NC1(C)CCC(=O)Nc2ccc(cc2)-c3ncccc3O] | 17.3 | 13.7 | 16.1 | 24.9 | 0 | 8.8 | – | – | – | – | – | – | – | – | – | BRD4-BD1 (experimental hit status) (BRD4-BD1; [6]): 0; KRAS-G12D (experimental hit status) (KRas^G12D; [6]): 1; STAT5B-NTD (experimental hit status) (STAT5B-NTD [2]; [6]): 0; Effect on SOS1-mediated nucleotide exchange of KRas ([4]; prior to irradiation): no effect; Effect on SOS1-mediated nucleotide exchange of KRas ([4]; upon irradiation (366 nm, 10 min)): no effect; Number of proteins labeled ([5]; of the six protein targets): four
COc1ccc(NS(=O)(=O)c2cccc(NC(=O)CCC3(C)N=N3)c2)cc1 [PhP087, COc1ccc(cc1)NS(=O)(=O)c2cccc(c2)NC(=O)CCC3(C)N=N3] | 18.9 | 12.6 | 1.5 | 3.2 | 2.9 | 8 | 0.7 | 0 | 0 | 0 | – | – | – | – | – | Number of targets labeled in higher than 10% amount ([5]; of the six protein targets): two
CC1(CCC(=O)NCc2ccc(-c3ccc(O)cc3)cc2)N=N1 [PhP088, N1=NC1(C)CCC(=O)NCc2ccc(cc2)-c3ccc(O)cc3] | 0 | 0.2 | 4.8 | 0.2 | 0 | 5.7 | 0.5 | 0 | 0 | 0 | > 1% and < 1% | – | – | – | – | –
Cc1nc(CCNC(=O)CCC2(C)N=N2)sc1C [PhP092, Cc1nc(sc1C)CCNC(=O)CCC2(C)N=N2] | 0.3 | 0.1 | 35.6 | 0.1 | 0 | 0.8 | 0.5 | 0 | 0 | 0 | > 1% and < 1% | – | – | – | – | –
COc1ccc(-c2cnc(CNC(=O)CCC3(C)N=N3)[nH]2)cc1 [PhP098, COc1ccc(cc1)-c2cnc([nH]2)CNC(=O)CCC3(C)N=N3] | 1.6 | 9.6 | 0.5 | 2.3 | 1.4 | 3.1 | 4.3 | – | – | – | – | 0 | 0 | 0 | 3.3 ± 3.1 | –
CC1(CCC(=O)NCc2ccc(CNC(=O)OC(C)(C)C)cc2)N=N1 [PhP099, CC(C)(C)OC(=O)NCc1ccc(cc1)CNC(=O)CCC2(C)N=N2] | 12.8 | 7.7 | 2.2 | 4.3 | 2.9 | 19.3 | 1.1 | – | – | – | – | 0 | 0 | 0 | 5.2 ± 4 | –
